Here are results for four compounds from US20240316055A1, “METHODS FOR TREATING LEIGH SYNDROME” (DBCC Research, LLC, priority 2023, published 2024).

In one assay the test system is ECHS1 knockdown larvae. The assay is described as follows: Fly larva experiment: buoyancy (float/sink). Format: in vivo, Drosophila. Particulars: multiple doses fed to larvae; untreated ECHS1 knockdown larvae 30% sank. An excerpt: To determine whether the Drosophila larvae experiment would be appropriate for further evaluation of compounds, the phenotype induced by ECHSI RNAi was identified. […] It was noted that when extracted from food and placed in 1X PBS, ECHS1 knockdown larvae were buoyant and sank only ˜30% of the time, while age-matched control larvae always sank at 100% frequency.
To test the ability of drug compounds to rescue these two ECHS1 knockdown phenotypes, the larvae were fed with fly food with various concentrations of 10 candidate drugs and first measured for larval size. During the 6 days prior to collection and phenotyping, larvae were raised in the drug food and exposed to drug continuously throughout development. […] Independently, losmapimod, talmapimod, ralimetinib, and neflamapimod were selected at multiple doses and fed to larvae and the population-wide float/sink proportions were assayed. In contrast to untreated ECHS1 knockdown larvae, where 30% sank, treatment with drug compounds nearly doubled the sinking proportions to 60%. Considering the effect of ECHSI on buoyancy in light of its enzymatic function catalyzing the second step of mitochondrial fatty acid beta-oxidation, decreased ECHS1 activity was expected to increase levels of non-metabolized lipid which would increase buoyancy. Thus, compounds were identified that suppressed both quantitative and nominal phenotypes, one of which appears to be directly relevant to the enzymatic function of ECHS1.

For assay [1], the system named is ECHS1 patient-derived fibroblasts. Description: Mitochondrial respiration assay (Seahorse). Format: cell-based. Particulars: 48 hours; for respiration: glucose or galactose conditions, 1, 5 or 10 μM. An excerpt: To assess the mechanism of action of hit compounds from the screens of previous Examples, which were based on rescue of viability after metabolic challenge, Seahorse assay was used to measure mitochondrial function in response to treatment at multiple concentrations. The Seahorse assay measures the following parameters: oxygen consumption; basal respiration rate; ATP-linked respiration; maximal respiration; reserve capacity; and ATP production rate. At baseline (no treatment), the ECHS1 patient-derived fibroblasts had lower respiration rates than the control fibroblasts in glucose culturing conditions (20% reduction) and in galactose culturing conditions (30% reduction).
ECHS1 patient-derived fibroblasts and age-matched and sex-matched control fibroblasts were initially grown in standard media (DMEM+2 mM glutamine+1 mM pyruvate) containing 10 mM glucose as the energy source. Cells were seeded into specialized 96-well plates at a density of 10,000 cells per well. One day after plating, cells were treated with the test compounds at the concentrations of 0, 1, 5, or 10 μM. Half of the samples were cultured in 10 mM glucose media in addition to the test compounds. The remaining half of the sample were cultured in 10 mM galactose media, which is a metabolic challenge, in addition to the test compound. Test compounds were incubated with cells for 48 hours. According to the standard Seahorse protocol, the following stressors were added to cells in sequential order: 2 μM oligomycin; 5 μM carbonyl cyanide-4-(trifluoromethoxy)phenylhydrazone (FCCP); 9 μM FCCP; 2 μM rotenone and 2 μM antimycin A. Data were normalized to cell number per well using a Hoechst stain for cell nuclei. Two rounds of experiments were conducted. The results were consistent between the two rounds.

A further assay relates to ECHS1 Fibroblast cells. Description: Galactose potency screen (cell viability, DAPI nuclei count). It is filed as cell-based. Particulars: galactose potency screen, FIG. 2. As to the method:
Galactose Screen: Compound library plates were obtained from Prestwick/Selleck and SPECS (7,591 compounds total, 27 compounds/plate/concentration at 1 μM and 10 μM, 384-well plates). ECHS1 Fibroblast cells were harvested at 95% confluent with trypsin and suspended in Dulbecco's Modified Eagle Medium (DMEM)+10% Fetal Bovine Serum (FBS). The suspension was centrifuged at 200x g for 5 min. The suspension was discarded and the pellet was resuspended in the 5.5 mM galactose medium (DMEM+10% FBS+5.5 mM galactose) and seeded at 750 cells/well (50 μL) into the compound wells (1 μM and 10 μM). For the positive control experiment, the cells were suspended in 5.5 mM galactose medium+5.5 mM glucose+0.01% DMSO and seeded at 750 cells/well (50 μL) into the blank wells. For the negative control experiment, the cells were suspended in the 5.5 mM galactose medium+0.01% DMSO and seeded at 750 cells/well (50 μL) into the blank wells. The seeded plates were incubated at 37° C. for 96 hours, then 15 μL/well of 16% paraformaldehyde solution was added to the plates and allowed to sit for 15 min to fix the cells. The plates were then washed 3x with 50 μL/well of phosphate-buffered saline (PBS). The cells were stained with […] of a solution of 4,6-diamidino-2-phenylindole dilactate (DAPI, Invitrogen) and left at room temperature for 1 hr. The plates were then washed 3x with 50 μL/well of PBS prior to imaging. Agilent BioTek EL406 Microplate Washer Dispenser was used for the cell fixation and staining protocol. The plates were imaged using GE InCell2200 Cell Analyzer using PerkinElmer Columbus software quantification protocol. The data was analyzed using Genedata, Vortex, and Abase software. A Z-score value of >2 was used for the Prestwick/Selleck compound library and >3 for the SPECS library (based on the negative control population) to determine hit selection.
ECHS1 Fibroblast cells were harvested at 70-80% confluent with trypsin and suspended in DMEM+10% FBS. The suspension was centrifuged at 200x g for 5 min. The suspension was discarded and the pellet was resuspended in the either the 5.5 mM galactose medium (DMEM+10% FBS+5.5 mM of galactose) or the 10 mM propionate medium (DMEM+10% FBS+10 mM sodium propionate). The cells were seeded at 750 cells/well (50 μL) into a 384-well plate containing the test compounds (3-fold serial dilution across 10 plates, starting at 10 uM). For the positive control experiment, the cells were suspended in either the 5.5 mM galactose medium or 10 mM propionate medium+5.5 mM glucose+0.01% DMSO and seeded at 750 cells/well (50 μL) into the blank wells. For the negative control experiment, the cells were suspended in the 5.5 mM galactose or 10 mM propionate medium +0.01% DMSO and seeded at 750 cells/well (50 μL) into the blank wells. The seeded plates were incubated at 37° C. for 96 hours, then 15 μL/well of 16% paraformaldehyde solution was added to the plates and allowed to sit for 15 min to fix the cells. The plates were then washed 3x with 50 μL/well of PBS. The cells were stained with 25 μL/well of a solution of DAPI and left at room temperature for 1 hr. The plates were then washed 3x with 50 μL/well of PBS prior to imaging. Agilent BioTek EL406 Microplate Washer Dispenser was used for the cell fixation and staining protocol. The plates were imaged using GE InCell2200 Cell Analyzer using PerkinElmer Columbus software quantification protocol. The data was analyzed using Genedata, Vortex, and Abase software. A Z-score value of >2 was used for both the Prestwick/Selleck and SPECS library (based on the negative control population) to determine hit selection.

`Cc1c(F)cc(C(=O)NC2CC2)cc1-c1ccc(C(=O)NCC(C)(C)C)cn1` [losmapimod, 6-[5-(cyclopropylcarbamoyl)-3-fluoro-2-methylphenyl]-N-(2,2-dimethylpropyl)pyridine-3-carboxamide] displayed a sinking proportions in the assay on ECHS1 knockdown larvae of 60%. Besides, the respiration result in assay [1] was “did not result in major changes”.
In the case of `O=c1ncn2nc(Sc3ccc(F)cc3F)ccc2c1-c1c(Cl)cccc1Cl` [neflamapimod, 5-(2,6-dichlorophenyl)-2-(2,4-difluorophenyl)sulfanylpyrimido[1,6-b]pyridazin-6-one], the concentration-dependent curves entry in the assay on ECHS1 Fibroblast cells is listed as “non-linear response”. In the assay on ECHS1 knockdown larvae, this compound registered a sinking proportions of 60%.
As to `CC(C)(C)Cn1c(N)nc2ccc(-c3[nH]c(C(C)(C)C)nc3-c3ccc(F)cc3)nc21` [ralimetinib, 5-[2-tert-butyl-4-(4-fluorophenyl)-1H-imidazol-5-yl]-3-(2,2-dimethylpropyl)imidazo[4,5-b]pyridin-2-amine], the concentration-dependent curves result in the assay on ECHS1 Fibroblast cells was “non-linear response”. This compound also came in with a sinking proportions with ECHS1 knockdown larvae of 60%. Besides, the respiration entry in assay [1] is “did not result in major changes”.
For the compound `C[C@@H]1CN(Cc2ccc(F)cc2)[C@@H](C)CN1C(=O)c1cc2c(C(=O)C(=O)N(C)C)cn(C)c2cc1Cl` [talmapimod, 2-[6-chloro-5-[(2R,5S)-4-[(4-fluorophenyl)methyl]-2,5-dimethylpiperazine-1-carbonyl]-1-methylindol-3-yl]-N,N-dimethyl-2-oxoacetamide], in the assay on ECHS1 Fibroblast cells, the concentration-dependent curves entry is on record as “non-linear response”. The compound further gave a sinking proportions in the assay with ECHS1 knockdown larvae of 60%. Further, the ATP production rates entry in assay [1] is listed as “no change”. For the same compound, the “increase in maximal respiration” value in assay [1] (glucose-treated cells, 10 μM) is listed as 11%. The maximal respiration entry in assay [1] (glucose-treated cells) was “dose-dependent increase”.
